Experimental data reported in PMC3700413 (Journal of medicinal chemistry, 2008).
Entries after “also recorded” stand apart in the source; their conditions may differ. Where two headings read alike, the source gives them in different places.

Assays:
CB2 cannabinoid receptor [1] = target: T1, CB2 cannabinoid receptor (Mus musculus, UniProt P47936); experiment: Competitive [3H]CP55,940 binding assay, mouse spleen membranes; conditions: rCB1 versus mCB2 Ki values
CB2 cannabinoid receptor [2] = target: T1, CB2 cannabinoid receptor; conditions: earlier work on adamantyl substituents at C3 of Δ8-THC; cited from earlier work

T1 sequence (P47936 whole entry): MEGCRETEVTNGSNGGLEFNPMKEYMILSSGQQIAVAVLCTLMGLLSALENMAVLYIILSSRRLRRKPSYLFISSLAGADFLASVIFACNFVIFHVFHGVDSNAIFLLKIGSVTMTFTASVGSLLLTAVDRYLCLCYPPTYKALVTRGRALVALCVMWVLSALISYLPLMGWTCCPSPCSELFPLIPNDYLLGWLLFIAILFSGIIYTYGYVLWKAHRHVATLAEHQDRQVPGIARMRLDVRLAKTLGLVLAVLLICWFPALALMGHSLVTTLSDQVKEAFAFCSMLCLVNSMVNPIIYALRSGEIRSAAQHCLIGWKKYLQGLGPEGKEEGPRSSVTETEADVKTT

Structure (SMILES)	CB1/CB2 receptor subtype selectivity (in words) (CB2 cannabinoid receptor [1])	CB1/CB2 receptor subtype selectivity (in words) (CB2 cannabinoid receptor [2])
CC1=CC[C@@H]2[C@@H](C1)c1c(O)cc([C@H]3C[C@@H]4CC[C@]3(C)C4(C)C)cc1OC2(C)C [Compound 8a, (6aR-trans)-3-(endo-1′,7′,7′-Trimethylbicyclo[2.2.1]hept-2′-yl)-6a,7,10,10atetrahydro-6,6,9-trimethyl-6H-dibenzo[b,d]pyran-1-ol]	no subtype selectivity	
CC1=CC[C@@H]2[C@@H](C1)c1c(ccc(C[C@H]3C[C@@H]4CC[C@]3(C)C4(C)C)c1O)OC2(C)C [Compound 8c, (6aR-trans)-3-(endo-1′,7′,7′-Trimethylbicyclo[2.2.1]hept-2′-ylmethyl)-6a,7,10,10a-tetrahydro-6,6,9-trimethyl-6H-dibenzo[b,d]pyran-1-ol]	nonselective; also recorded: complete loss of subtype selectivities	
CC1=CC[C@@H]2[C@@H](C1)c1c(ccc(C[C@@H]3C[C@@H]4CC[C@]3(C)C4(C)C)c1O)OC2(C)C [Compound 8d, (6aR-trans)-3-(exo-1′,7′,7′-Trimethylbicyclo[2.2.1]hept-2′-ylmethyl)-6a,7,10,10a-tetrahydro-6,6,9-trimethyl-6H-dibenzo[b,d]pyran-1-ol]	nonselective; also recorded: complete loss of subtype selectivities	
CC1=CC[C@@H]2[C@@H](C1)c1c(O)cc(C34CC5CC(CC(C5)C3)C4)cc1OC2(C)C [Compound 11, 3-(adamant-1′-yl)-Δ^8-THC]		substantial CB1 selectivity
CC1=CCC2C(C1)c1c(O)cc(C3C4CC5CC(C4)CC3C5)cc1OC2(C)C (centres unmarked) [adamant-2′-yl analog]		CB2 selective
